From patent publication US10781204B2, “TYK2 inhibitors and uses thereof” (Nimbus Lakshmi, Inc., priority 2015, dated 2020) come the findings set out here.

In assay [1] the target is JAK2 (Homo sapiens (Human), UniProt O60674). Description: JAK2 radioactive kinase assay. The assay is classed as biochemical. The following applies: ATP 10 μM. The method, then:
(§1) Peptide substrate, [KKSRGDYMTMQIG], (20 μM) is prepared in reaction buffer (20 mM Hepes pH 7.5, 10 mM MgCl2, 1 mM EGTA, 0.02% Brij35, 0.02 mg/mL BSA, 0.1 mM […], 2 mM DTT, 1% DMSO. TYK2 (Invitrogen) kinase is added, followed by compounds in DMSO. ^33PATP is added to initiate the reaction with ATP at 10 μM. Kinase reaction is incubated for 120 min at room temp and reactions are spotted onto P81 ion exchange paper (Whatman #3698-915), and then washed extensively in 0.75% phosphoric acid, prior to reading the radioactivity counts. For JAK2 (Invitrogen) kinase assay the peptide substrate poly[Glu:Tyr] (4:1), 0.2 mg/ml is used, in the reaction carried out the same as for TYK2.

The target in assay [2] is TYK2 (Homo sapiens (Human), UniProt P29597). Description: Tyk2 radioactive kinase assay. It counts as biochemical. The following applies: ATP 10 μM. The protocol:
as §1

The structures appear in SMILES notation.

One may read the Ki as the equilibrium dissociation constant of an inhibitor or competing ligand from its target.

Chain of JAK2 (O60674 whole entry): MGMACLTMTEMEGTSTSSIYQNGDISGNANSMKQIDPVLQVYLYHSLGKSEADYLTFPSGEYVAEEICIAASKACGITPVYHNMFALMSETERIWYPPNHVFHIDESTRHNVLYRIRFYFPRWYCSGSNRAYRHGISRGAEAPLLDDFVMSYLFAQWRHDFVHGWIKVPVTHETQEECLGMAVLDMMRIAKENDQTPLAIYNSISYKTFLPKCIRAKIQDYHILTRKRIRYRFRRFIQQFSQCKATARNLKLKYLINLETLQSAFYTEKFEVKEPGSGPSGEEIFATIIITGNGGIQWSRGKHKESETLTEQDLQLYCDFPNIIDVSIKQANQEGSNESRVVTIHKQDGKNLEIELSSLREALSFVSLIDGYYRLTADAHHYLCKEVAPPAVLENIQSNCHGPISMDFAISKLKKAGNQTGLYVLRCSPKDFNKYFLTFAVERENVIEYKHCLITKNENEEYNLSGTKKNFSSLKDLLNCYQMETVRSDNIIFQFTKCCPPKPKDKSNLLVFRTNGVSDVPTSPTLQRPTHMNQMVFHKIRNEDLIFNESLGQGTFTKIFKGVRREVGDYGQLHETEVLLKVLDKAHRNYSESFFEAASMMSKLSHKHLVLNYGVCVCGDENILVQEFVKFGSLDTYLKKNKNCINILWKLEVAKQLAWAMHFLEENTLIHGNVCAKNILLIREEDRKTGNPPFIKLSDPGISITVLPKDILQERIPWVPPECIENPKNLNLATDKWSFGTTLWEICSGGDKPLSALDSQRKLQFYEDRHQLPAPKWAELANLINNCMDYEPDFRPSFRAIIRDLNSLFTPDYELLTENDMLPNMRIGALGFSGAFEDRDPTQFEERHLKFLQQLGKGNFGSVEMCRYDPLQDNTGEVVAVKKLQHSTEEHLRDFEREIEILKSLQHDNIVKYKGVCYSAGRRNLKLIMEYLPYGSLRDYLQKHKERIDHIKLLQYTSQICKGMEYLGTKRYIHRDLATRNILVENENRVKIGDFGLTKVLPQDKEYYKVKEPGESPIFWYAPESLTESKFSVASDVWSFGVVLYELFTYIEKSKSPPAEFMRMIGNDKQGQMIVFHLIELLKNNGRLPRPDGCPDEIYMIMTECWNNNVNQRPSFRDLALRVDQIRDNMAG
Chain of TYK2 (P29597 whole entry): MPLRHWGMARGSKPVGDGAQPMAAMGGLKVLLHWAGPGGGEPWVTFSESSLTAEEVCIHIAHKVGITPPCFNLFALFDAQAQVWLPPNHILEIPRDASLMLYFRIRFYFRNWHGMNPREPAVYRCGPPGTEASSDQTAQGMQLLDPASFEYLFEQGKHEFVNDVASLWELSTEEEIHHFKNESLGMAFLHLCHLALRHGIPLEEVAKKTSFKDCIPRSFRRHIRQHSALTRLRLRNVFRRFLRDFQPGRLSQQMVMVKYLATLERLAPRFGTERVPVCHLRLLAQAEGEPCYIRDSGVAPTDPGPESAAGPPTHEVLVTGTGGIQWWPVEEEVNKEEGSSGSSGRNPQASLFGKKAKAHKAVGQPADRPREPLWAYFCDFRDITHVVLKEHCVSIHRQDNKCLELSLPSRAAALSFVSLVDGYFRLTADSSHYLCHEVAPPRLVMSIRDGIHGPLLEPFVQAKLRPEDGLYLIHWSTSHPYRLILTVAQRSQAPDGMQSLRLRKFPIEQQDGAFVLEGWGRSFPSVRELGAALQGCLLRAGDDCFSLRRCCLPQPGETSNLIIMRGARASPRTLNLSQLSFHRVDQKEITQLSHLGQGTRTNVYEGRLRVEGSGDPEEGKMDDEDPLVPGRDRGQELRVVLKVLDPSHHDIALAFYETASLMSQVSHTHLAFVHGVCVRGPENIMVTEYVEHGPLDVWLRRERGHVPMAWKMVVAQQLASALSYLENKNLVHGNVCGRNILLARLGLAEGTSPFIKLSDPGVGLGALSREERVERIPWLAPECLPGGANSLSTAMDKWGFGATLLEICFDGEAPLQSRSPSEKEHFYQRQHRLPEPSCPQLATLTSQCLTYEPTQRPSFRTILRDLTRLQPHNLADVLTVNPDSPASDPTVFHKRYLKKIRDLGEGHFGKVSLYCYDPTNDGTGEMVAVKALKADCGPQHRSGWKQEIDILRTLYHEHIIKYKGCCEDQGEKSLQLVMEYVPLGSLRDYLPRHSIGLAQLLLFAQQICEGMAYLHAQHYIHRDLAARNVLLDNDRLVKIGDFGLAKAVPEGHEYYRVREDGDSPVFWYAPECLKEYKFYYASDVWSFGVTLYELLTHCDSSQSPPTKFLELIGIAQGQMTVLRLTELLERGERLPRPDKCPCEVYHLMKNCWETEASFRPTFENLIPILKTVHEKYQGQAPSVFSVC

As to `C[C@]1(O)CN(c2ccn(-c3cc(-c4c(F)cccc4C#N)nc4c3C(=O)NC4)n2)C[C@@](C)(O)C1` [I-144, 2-(4-(3-((3S,5R)-3,5-dihydroxy-3,5-dimethylpiperidin-1-yl)-1H-pyrazol-1-yl)-5-oxo-6,7-dihydro-5H-pyrrolo[3,4-b]pyridin-2-yl)-3-fluorobenzonitrile], the Ki is 100 to 1000 nM in assay [1] and 10 to 100 nM in assay [2].

In the case of `CC1(O)CN(c2ccn(-c3cc(-c4c(F)cccc4C#N)nc4c3C(=O)NC4)n2)CC[C@H]1O` (stereo partly drawn) [I-108, 2-(4-(3-((4R)-3,4-dihydroxy-3-methylpiperidin-1-yl)-1H-pyrazol-1-yl)-5-oxo-6,7-dihydro-5H-pyrrolo[3,4-b]pyridin-2-yl)-3-fluorobenzonitrile], the Ki in assay [1] and in assay [2] was 0.1 to 10 nM each time.

As to `CO[C@H]1CN(c2ccn(-c3cc(-c4c(F)cccc4C#N)nc4c3C(=O)NC4)n2)C[C@H]1O` [I-143, 3-fluoro-2-(4-(3-((3R,4S)-3-hydroxy-4-methoxypyrrolidin-1-yl)-1H-pyrazol-1-yl)-5-oxo-6,7-dihydro-5H-pyrrolo[3,4-b]pyridin-2-yl)benzonitrile], the Ki in assay [1] and in assay [2] was 0.1 to 10 nM each time.

Turning to `N#Cc1cccc(F)c1-c1cc(-n2ccc(N3CCC[C@H](O)[C@H](O)C3)n2)c2c(n1)CNC2=O` [I-115, 2-(4-(3-((3R,4S)-3,4-dihydroxyazepan-1-yl)-1H-pyrazol-1-yl)-5-oxo-6,7-dihydro-5H-pyrrolo[3,4-b]pyridin-2-yl)-3-fluorobenzonitrile], the Ki lay in the range of 10 to 100 nM in assay [1] and 0.1 to 10 nM in assay [2].

As to `CS(=O)(=O)c1ccn(-c2cc(-c3c(F)cccc3C#N)nc3c2C(=O)NC3)n1` [I-81, 3-fluoro-2-(4-(3-(methylsulfonyl)-1H-pyrazol-1-yl)-5-oxo-6,7-dihydro-5H-pyrrolo[3,4-b]pyridin-2-yl)benzonitrile], the Ki in assay [1] is at least 1000 nM; in assay [2] it was 10 to 100 nM.

Regarding `O=C1NCc2nc(-c3c(F)cccc3F)cc(-n3cccn3)c21` [I-58, 2-(2,6-difluorophenyl)-4-(1H-pyrazol-1-yl)-6,7-dihydro-5H-pyrrolo[3,4-b]pyridin-5-one], the inhibition constant (Ki) in assay [1] lay within 100 to 1000 nM; in assay [2] it was 10 to 100 nM.

In the case of `N#Cc1cccc(F)c1-c1cc(-n2ccc(N3CCC(C#N)C3)n2)c2c(n1)CNC2=O` (stereo not drawn) [I-116, 1-(1-(2-(2-cyano-6-fluorophenyl)-5-oxo-6,7-dihydro-5H-pyrrolo[3,4-b]pyridin-4-yl)-1H-pyrazol-3-yl)pyrrolidine-3-carbonitrile], the Ki in assay [1] and in assay [2] was 0.1 to 10 nM in each case.

For `N#Cc1cccc(F)c1-c1cc(-n2ccc(CC(=O)O)n2)c2c(n1)CNC2=O` [I-102, 2-(1-(2-(2-cyano-6-fluorophenyl)-5-oxo-6,7-dihydro-5H-pyrrolo[3,4-b]pyridin-4-yl)-1H-pyrazol-3-yl)acetic acid], the Ki in assay [1] was at least 1000 nM; in assay [2], 10 to 100 nM.

For the molecule `N#Cc1cccc(F)c1-c1cc(-n2ccc(CCO)n2)c2c(n1)CNC2=O` [I-94, 3-fluoro-2-(4-(3-(2-hydroxyethyl)-1H-pyrazol-1-yl)-5-oxo-6,7-dihydro-5H-pyrrolo[3,4-b]pyridin-2-yl)benzonitrile], the Ki in assay [1] lay within 100 to 1000 nM; in assay [2], 10 to 100 nM.

Take `CCNC(=O)Cc1ccn(-c2cc(-c3c(F)cccc3C#N)nc3c2C(=O)NC3)n1` [I-7, 2-(1-(2-(2-cyano-6-fluorophenyl)-5-oxo-6,7-dihydro-5H-pyrro-lo[3,4-b]pyridin-4-yl)-1H-pyrazol-3-yl)-N-ethylacetamide]: the Ki in assay [1] lay in the range of 100 to 1000 nM; in assay [2], 0.1 to 10 nM.

Turning to `N#Cc1cccc(F)c1-c1cc(-n2ccc(NCCO)n2)c2c(n1)CNC2=O` [I-64, 3-fluoro-2-(4-(3-((2-hydroxyethyl)amino)-1H-pyrazol-1-yl)-5-oxo-6,7-dihydro-5H-pyrrolo[3,4-b]pyridin-2-yl)benzonitrile], the Ki in assay [1] fell in the range of 10 to 100 nM; in assay [2], 0.1 to 10 nM.

As to `N#Cc1cccc(F)c1-c1cc(-n2ccc(N3CCC4(CCNC4=O)C3)n2)c2c(n1)CNC2=O` (stereo not drawn) [I-146, 3-fluoro-2-(5-oxo-4-(3-(6-oxo-2,7-diazaspiro[4.4]nonan-2-yl)-1H-pyrazol-1-yl)-6,7-dihydro-5H-pyrrolo[3,4-b]pyridin-2-yl)benzonitrile], the figures for the Ki in assay [1] and in assay [2] were 10 to 100 nM and 0.1 to 10 nM, respectively.

Take `N#Cc1cccc(F)c1-c1cc(-n2ccc(N3CCC(N4CCCC4)CC3)n2)c2c(n1)CNC2=O` [I-66, 3-fluoro-2-(5-oxo-4-(3-(4-(pyrrolidin-1-yl)piperidin-1-yl)-1H-pyrazol-1-yl)-6,7-dihydro-5H-pyrrolo[3,4-b]pyridin-2-yl)benzonitrile]: the Ki in assay [1] lay within 10 to 100 nM; in assay [2] it was 0.1 to 10 nM.

For `CN1CCN(c2ccn(-c3cc(-c4c(F)cccc4F)nc4c3C(=O)NC4)n2)CC1` [I-5, 2-(2,6-difluorophenyl)-4-(3-(4-methylpiperazin-1-yl)-1H-pyrazol-1-yl)-6,7-dihydro-5H-pyrrolo[3,4-b]pyridin-5-one], the Ki in assay [1] lay within 100 to 1000 nM; in assay [2], 0.1 to 10 nM.

Take `O=C1NCc2nc(-c3c(F)cccc3F)cc(-n3ccc(N4CCOCC4)n3)c21` [I-1, 2-(2,6-difluorophenyl)-4-(3-morpholino-1H-pyrazol-1-yl)-6,7-dihydro-5H-pyrrolo[3,4-b]pyridin-5-one]: the Ki in assay [1] was in the range of 100 to 1000 nM; in assay [2] it was 0.1 to 10 nM.

Take `N#Cc1cccc(F)c1-c1cc(-n2ccc(N3CC[C@H](F)[C@H](O)C3)n2)c2c(n1)CNC2=O` [I-174, 3-fluoro-2-(4-(3-((3R,4S)-4-fluoro-3-hydroxypiperidin-1-yl)-1H-pyrazol-1-yl)-5-oxo-6,7-dihydro-5H-pyrrolo[3,4-b]pyridin-2-yl)benzonitrile]: the Ki in assay [1] lay within 10 to 100 nM; in assay [2], 0.1 to 10 nM.

As to `CN(C)[C@H]1CC[C@H](Oc2ccn(-c3cc(-c4c(F)cccc4C#N)nc4c3C(=O)NC4)n2)CC1` [I-117, 2-(4-(3-(((1r,4r)-4-(dimethylamino)cyclohexyl)oxy)-1H-pyrazol-1-yl)-5-oxo-6,7-dihydro-5H-pyrrolo[3,4-b]pyridin-2-yl)-3-fluorobenzonitrile], the Ki in assay [1] was in the range of 10 to 100 nM; in assay [2] it was 0.1 to 10 nM.

`CN1CC(S(=O)(=O)N2CCN(c3ccn(-c4cc(-c5c(F)cccc5C#N)nc5c4C(=O)NC5)n3)CC2)C1` [I-99, 3-fluoro-2-(4-(3-(4-((1-methylazetidin-3-yl)sulfonyl)piperazin-1-yl)-1H-pyrazol-1-yl)-5-oxo-6,7-dihydro-5H-pyrrolo[3,4-b]pyridin-2-yl)benzonitrile]: the Ki in assay [1] and in assay [2] was at least 1000 nM each time.

As for `C[C@@H]1CC(O)C[C@@H](C)N1c1ccn(-c2cc(-c3c(F)cccc3C#N)nc3c2C(=O)NC3)n1` (stereo partly drawn) [I-106, 3-fluoro-2-(4-(3-((2R,6R)-4-hydroxy-2,6-dimethylpiperidin-1-yl)-1H-pyrazol-1-yl)-5-oxo-6,7-dihydro-5H-pyrrolo[3,4-b]pyridin-2-yl)benzonitrile], the Ki fell in the range of 100 to 1000 nM in assay [1] and 10 to 100 nM in assay [2].

Consider `COCCOC1CN(c2ccn(-c3cc(-c4c(F)cccc4C#N)nc4c3C(=O)NC4)n2)C1` [I-82, 3-fluoro-2-(4-(3-(3-(2-methoxyethoxy)azetidin-1-yl)-1H-pyrazol-1-yl)-5-oxo-6,7-dihydro-5H-pyrrolo[3,4-b]pyridin-2-yl)benzonitrile], for which the Ki in assay [1] and in assay [2] was at least 1000 nM in each case.

With `CC1(O)CCN(c2ccn(-c3cc(-c4c(F)cccc4C#N)nc4c3C(=O)NC4)n2)C1` (stereo not drawn) [I-87, 3-fluoro-2-(4-(3-(3-hydroxy-3-methylpyrrolidin-1-yl)-1H-pyrazol-1-yl)-5-oxo-6,7-dihydro-5H-pyrrolo[3,4-b]pyridin-2-yl)benzonitrile], the inhibition constant (Ki) lay in the range of 10 to 100 nM in assay [1] and 0.1 to 10 nM in assay [2].

As to `N#Cc1cccc(F)c1-c1cc(-n2ccc(N3CCOCC3=O)n2)c2c(n1)CNC2=O` [I-138, 3-fluoro-2-(5-oxo-4-(3-(3-oxomorpholino)-1H-pyrazol-1-yl)-6,7-dihydro-5H-pyrrolo[3,4-b]pyridin-2-yl)benzonitrile], the figures for the Ki in assay [1] and in assay [2] were 100 to 1000 nM and 0.1 to 10 nM, respectively.

Consider `CN(C)[C@H]1CC[C@H](Nc2ccn(-c3cc(-c4c(F)cccc4C#N)nc4c3C(=O)NC4)n2)CC1` [I-67, 2-(4-(3-(((1r,4r)-4-(dimethylamino)cyclohexyl)amino)-1H-pyrazol-1-yl)-5-oxo-6,7-dihydro-5H-pyrrolo[3,4-b]pyridin-2-yl)-3-fluorobenzonitrile], for which the figures for the Ki in assay [1] and in assay [2] were 10 to 100 nM and 0.1 to 10 nM, respectively.

Regarding `[2H]C([2H])([2H])O[C@H]1CN(c2ccn(-c3cc(-c4c(F)cccc4C#N)nc4c3C(=O)NC4)n2)C[C@H]1O` [I-199, 3-fluoro-2-(4-(3-((3R,4S)-3-hydroxy-4-(methoxy-d3)pyrrolidin-1-yl)-1H-pyrazol-1-yl)-5-oxo-6,7-dihydro-5H-pyrrolo[3,4-b]pyridin-2-yl)benzonitrile], the Ki in assay [1] lay within 10 to 100 nM; in assay [2], 0.1 to 10 nM.
